Where a SMILES comes first, the peptide text is derived from it. [ ]: non-standard residue; d: D form. Tle = CC(C)(C)[C@H](N)C(=O)O; Aib = CC(C)(N)C(=O)O

Data set [1] addresses T1, TFPI (Homo sapiens, UniProt P10646). The data set can be described thus: IC50 Mean (nM].
From the text: Head of the field: IC50 Mean (nM]
“*” denotes negative controls.
For data set [2], the target named is T1, TFPI. The data set can be described thus: IC50 [nM].
Data set [3] has as its target Tissue Factor Pathway Inhibitor (TFPI) (Homo sapiens, UniProt P10646). The data set can be described thus: IC50 ELISA | IC50 [nM]. For orientation: An ELISA detects its analyte on a solid surface through an enzyme-linked reagent.
The nature of data set [4]: plasma stability in human plasma. Format: in vitro ADME. The note with it: 24 hour.
The subject of another data set is FIX knock-out mice. Nature of the data set: tail-tip bleed model. Format: in vivo, mouse. The protocol:
The amount of blood was determined gravimetrically.
JBT2329 also was tested in a FIX knock-out tail-tip bleed mouse model, which is a clinically-relevant model for hemophilia B human patients. The methodology was substantially similar to that described above with respect to the FVIII knock-out model. Instead of ADVATE, a recombinant FIX (rFIX) served as a reference. Median total blood loss in buffer-treated animals was 935 mg. Median total blood loss in animals treated with a murine anti-TFPI antibody (maTFPI) was 774 mg. Median total blood loss was reduced further when the animals received combined treatment of maTFPI and rFIX.

For the next data set, the system named is C57B1/6NCr1 mice. Nature of the data set: nail clip blood loss study. The data set is classed as in vivo, mouse.
The test system of another data set is FVIII knock-out mice. Conditions: 1 mg/kg JBT2329 without ADVATE.
The nature of data set [5]: pharmacokinetic analysis in mice. The note with it: C57B16 mice, 1 mg/kg (peptide content). The data set is classed as in vivo, mouse.
Method: The peptides were administered intravenously to C57B16 mice at a dose of 10 mg/kg. Three biological samples were analyzed for the presence of peptide at each time point.
For pharmacokinetic analysis, C57B16 mice were treated with various TFPI-binding peptides conjugated to different molecular weight PEGs and HSA. The dose of the peptide-PEG and peptide-HSA conjugates was normalized to 1 mg/kg (peptide content). […] Blood draws were taken from three animals (retro bulbar) and collected in heparinized vials at several time points following administration. The samples were centrifuged, and the peptide-conjugate content in plasma was quantified by ELISA.
The subject of data set [6] is human whole blood clot formation. Nature of the data set: rotation thromboelastography (ROTEM). Conditions: Hem A (FVIII-inhibited) human whole blood.
Method: Continuous visco-elastic assessment of human whole blood clot formation and firmness was performed by rotation thromboelastography with whole blood preparations in the presence or absence of peptides.
Recordings were made using a ROTEM thromboelastography coagulation analyzer (Pentapharm, Munich, Germany) at 37° C. Briefly, blood is added into a disposable cuvette in a heated cuvette holder. A disposable pin (sensor) is fixed on the tip of a rotating axis. The axis is guided by a high precision ball bearing system and rotates back and forth. The axis is connected with a spring for the measurement of elasticity. The exact position of the axis is detected by the reflection of light on a small mirror on the axis. The loss of elasticity when the sample clots leads to a change in the rotation of the axis. The data obtained are computer analyzed and visualized in a thromboelastogram. […] An elasticity of approximately zero is observed before clot formation begins. Mirror image traces above and below the zero line indicate the effect of clot formation on the rotation of the axis. […]
The thromboelastographic parameters of clotting time (CT), clot formation time (CFT) and maximum clot firmness (MCF) were recorded in accordance with the manufacturer's instructions. […] From this graph, the maximum velocity (maxV) is determined. The time at which the maximum velocity is obtained (maxV-t) is also determined.

T1 sequence (P10646 29-304 limits assumed): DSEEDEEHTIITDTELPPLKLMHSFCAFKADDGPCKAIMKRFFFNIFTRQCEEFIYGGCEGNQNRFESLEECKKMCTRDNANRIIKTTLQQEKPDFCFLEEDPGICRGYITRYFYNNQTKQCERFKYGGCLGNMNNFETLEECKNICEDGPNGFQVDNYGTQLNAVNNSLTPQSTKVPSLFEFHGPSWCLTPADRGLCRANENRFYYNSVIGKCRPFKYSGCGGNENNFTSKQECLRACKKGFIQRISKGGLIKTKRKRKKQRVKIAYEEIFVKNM
Tissue Factor Pathway Inhibitor (TFPI), sequence (P10646 29-304 limits assumed): as above

By IC50 is commonly meant the concentration needed to halve the response being measured. With `CC[C@H](C)[C@H](NC(=O)[C@@H](NC(=O)CNC(=O)[C@@H]1CCCN1C(=O)CNC(=O)[C@H](Cc1c[nH]c2ccccc12)NC(=O)[C@@H](NC(=O)[C@@H](NC(=O)[C@H](CCCCN)NC(=O)[C@H](CO)NC(=O)[C@H](Cc1c[nH]c2ccccc12)NC(=O)[C@H](Cc1ccccc1)NC(=O)[C@H](Cc1ccc(O)cc1)NC(=O)[C@@H](NC(=O)[C@H](Cc1c[nH]c2ccccc12)NC(=O)[C@H](CC(=O)O)NC(=O)CNC(=O)[C@@H](NC(=O)[C@H](CC(C)C)NC(=O)[C@H](CCCCN)NC(=O)[C@H](CCCCN)NC(C)=O)[C@@H](C)O)[C@@H](C)O)C(C)C)[C@@H](C)CC)C(C)C)C(=O)N[C@@H](CCC(=O)O)C(=O)N[C@@H](CCCNC(=N)N)C(=O)N[C@@H](CCC(N)=O)C(=O)N[C@@H](CCSC)C(=O)N1CCC[C@H]1C(=O)N[C@H](C(=O)N[C@@H](CO)C(=O)N[C@H](C(=O)N[C@@H](Cc1ccccc1)C(=O)N[C@@H](Cc1c[nH]cn1)C(=O)N[C@@H](CCCCN)C(=O)N[C@@H](CCCCN)C(N)=O)[C@@H](C)O)C(C)C` [JBT0177* | 3065] (Ac-KKLTGDWTYFWSKVIWGPGVIERQMPVSTFHKK-NH2), the IC50 on TFPI [1] is more than 50 µM.

In turn, `CC[C@H](C)[C@H](NC(=O)[C@H](CCC(=O)O)NC(=O)[C@H](CCCCN)NC(=O)[C@H](CO)NC(=O)[C@H](CCCNC(=N)N)NC(=O)[C@H](CCCCN)NC(=O)[C@H](CO)NC(=O)[C@@H](NC(=O)[C@H](Cc1c[nH]cn1)NC(=O)[C@H](CC(C)C)NC(=O)[C@H](CCC(N)=O)NC(=O)[C@@H](NC(=O)[C@H](C)NC(=O)[C@H](CCC(N)=O)NC(=O)[C@H](Cc1c[nH]c2ccccc12)NC(=O)[C@H](Cc1ccccc1)NC(=O)[C@H](CO)NC(=O)[C@H](C)NC(=O)[C@H](Cc1ccc(O)cc1)NC(=O)CNC(C)=O)C(C)C)C(C)C)C(=O)N[C@@H](C)C(N)=O` [JBT1663 | 2146] (Ac-GYASFWQAVQLHVSKRSKEIA-NH2) returned an IC50 at TFPI [2] of 12.9 µM.

As to `CC(=O)N[C@@H](Cc1ccccc1)C(=O)N[C@@H](CCC(N)=O)C(=O)N[C@@H](CC(=O)O)C(=O)N[C@@H](CCCCN)C(=O)N1CCC[C@@H]1C(=O)N[C@@H](CC(N)=O)C(=O)N[C@H](C(=O)N[C@@H](Cc1c[nH]cn1)C(=O)N[C@H](C(=O)N[C@@H](CC(=O)O)C(=O)NCC(=O)N[C@@H](Cc1ccc(O)cc1)C(=O)N[C@@H](Cc1ccccc1)C(=O)N[C@@H](CCC(=O)O)C(=O)N[C@@H](CCCNC(=N)N)C(=O)N[C@@H](CC(C)C)C(=O)NC(C)(C)C(=O)N[C@@H](C)C(=O)N[C@@H](CCCCN)C(=O)N[C@@H](CC(C)C)C(N)=O)C(C)(C)C)C(C)C` [JBT2426 | 4144, Ac-FQDKpNVH-Tle-DGYFERL-Aib-AKL-NH2] (Ac-FQDK[dP]NVH[Tle]DGYFERL[Aib]AKL-NH2), the IC50 in [3] is 0.0105 µM.

As to “Ac-FQSKpNVHVDGYFERL-Aib-AKLC(PEG)-NH2 [JBT2329]”, the “Human Plasma Stability, 24 hour (%)” value in [4] is given as 67.3%. Also, the “median total blood loss vs buffer” value in the data set on FIX knock-out mice (1 mg/kg JBT2329 alone (p=0.321)) is “did not lead to a significant reduction in median total blood loss”. For the same compound, in the data set with FIX knock-out mice (JBT2329 1 mg/kg or 0.1 mg/kg in combination with 10 IU/kg rFIX), the “Efficacy vs buffer at a […] level” value is reported as “statistically significant superiority over buffer”. In the data set with C57B1/6NCr1 mice (0.1 mg/kg i.v.), the “blood loss, second 30 minute period” value was 18.7 µL; the “reduction of blood loss vs vehicle, first 30 minutes” value is on record as “about 50%”; the “reduction of blood loss vs vehicle, second 30 minute period” value is recorded as “about 64%”; the “reduction of total blood loss over 60 minutes vs vehicle” value was approximately 60%. Also, in the data set on C57B1/6NCr1 mice (0.1 mg/kg i.v.), the “total blood loss over 60 minutes” value is 34.7 µL. Besides, the “blood loss, first 30 minutes” value with C57B1/6NCr1 mice (0.1 mg/kg i.v., naive C57BL6 mice) came to 16.0 µL. Further, in the data set with C57B1/6NCr1 mice (1.0 mg/kg i.v.), the “blood loss, entire 60 minute collection period” value amounted to 22.8 µL; the “blood loss, first 30 minutes” value turned out to be 12.2 µL; the “blood loss, second 30 minute period” value was found to be 10.6 µL. In the data set with C57B1/6NCr1 mice (10 mg/kg subcutaneous), the “reduction of blood loss during 60 minutes vs vehicle” value was “approximately 58%”. Further, the “median total blood loss vs buffer” value with FVIII knock-out mice is given as “did not reduce median total blood loss”. The “HL_λ_z [h] (intravenous)” value in [5] (intravenous) came to 19.8 h. In addition, the “Bioavailability [%] (s.c.)” value in [5] (s.c. AUC vs i.v. AUC) is on record as 73.3%. Moreover, in [6], the coagulation parameters entry is recorded as “restored prolonged coagulation parameters in Hem A blood”.

The values are drawn from US10201586B2 (dated 2019).
